Measurements from PubChem BioAssay AID493147 (Broad Institute, 2011).
Several values for one entry are separate records, joined by “and”; a condition that tells them apart may be missing. Equal entries are not always repeated. Results filed as inconclusive are left out. Activity calls are given as the source filed them. No rule for the calls is given here.

Key:
[1] = PubChem AID 493147; conditions: NIH-3T3 viability with fluconazole, Alamar Blue, 48 h
[2] = tested on: NIH-3T3 viability with fluconazole, Alamar Blue, 48 h; test: PubChem AID 493147

Structure (SMILES) | activity change, negative = toxicity ([1]; at 26 µM (top of the series)) | also measured
COC(=O)[C@@H](C)n1nc(-c2ccccc2)c2ccccc21 (racemic) | -17.9% (inactive) | 
CNC(=O)Cn1nc(-c2ccccc2)c2ccccc21 | 2.83% (inactive) | 
N#CCn1nc(-c2ccccc2)c2ccccc21 | 8% (inactive) | 
COc1cccnc1N1CCN(C(=O)c2ccc(Cl)cc2)CC1 |  | AC50 [2]: 124 nM
COc1ccc2c(c1)c1nc3n(c(=O)c1n2CC(=O)N1CCC(C)CC1)CCS3 |  | activity change, negative = toxicity ([1]; at 2.6 µM (top of the series)): 41.3% (inactive)
CC(C)OC(=O)Cn1nc(-c2ccccc2)c2ccccc21 | 11.4% (inactive) | 
COC(=O)Cn1nc(-c2ccccc2)c2cc(OC)ccc21 | -0.175% (inactive) | 
N#Cc1ccc(C(=O)N2CCN(c3ccccn3)CC2)cc1 | 15.4% (inactive) | 
COC(=O)Cn1nc(I)c2ccccc21 |  | AC50 [2]: 528 nM
CC1CCN(C(=O)Cn2c3ccccc3c3nc4n(c(=O)c32)CCS4)CC1 |  | AC50 [2]: > 26000 nM (inactive)
N#Cc1ccc(N2CCN(C(=O)c3ccc(Cl)cc3)CC2)nc1 | -32.5% (inactive) | 
COC(=O)Cn1nc(-c2ccc(OC)cc2)c2ccccc21 |  | AC50 [2]: 1020 nM
COC(=O)Cn1nc(-c2cccc(F)c2)c2ccccc21 |  | AC50 [2]: 12800 nM
O=C(c1cccc(Cl)c1)N1CCN(c2ccccn2)CC1 | -4.09% (inactive) | 
O=C(Cn1c2ccccc2c2nc3n(c(=O)c21)CCS3)N1CCCCC1 | -8.42% (inactive) | 
O=C(Cn1c2ccccc2c2nc3n(c(=O)c21)CCS3)NCCc1ccc(Cl)cc1 | -12% (inactive) | 
O=C(O)c1nn(Cc2ccc(Cl)cc2)c2ccccc12 | -35.3% (inactive) | 
COC(=O)Cn1nc(-c2cccc(OC)c2)c2ccccc21 | -29.2% (inactive) | 
O=C(Cn1nc(-c2ccccc2)c2ccccc21)OC1CCC1 |  | AC50 [2]: 191 nM
O=C(c1ccccc1Cl)N1CCN(c2ccccn2)CC1 | -3.33% (inactive) | 
COC(=O)Cn1nc(-c2ccc(C(F)(F)F)cc2)c2ccccc21 |  | AC50 [2]: < 100 nM
COC(=O)Cn1c(-c2ccccc2)nc2ccccc21 | 10.3% (inactive) | 
CC(C)(C)OC(=O)Cn1nc(-c2ccccc2)c2ccccc21 | 20.8% (inactive) | 
c1ccc(-c2nn(Cc3ncco3)c3ccccc23)cc1 | -36.1% (inactive) | 

Structure (SMILES) | activity change, negative = toxicity ([1]; at 26 µM (top of the series)) | also measured
Cc1ccc(N2CCN(C(=O)c3ccc(Cl)cc3)CC2)nc1 |  | AC50 [2]: > 26000 nM (inactive)
O=C(c1ccc(Cl)cc1)N1CCN(c2nc3ccccc3o2)CC1 |  | AC50 [2]: 24200 nM
COc1ccc2c(c1)c1nc3n(c(=O)c1n2CC(=O)N1CCC(Cc2ccccc2)CC1)CCS3 | 8.36% (inactive) | 
COC(=O)Cn1nc(-c2ccccc2)c2ccc(C(F)(F)F)cc21 | -18.2% (inactive) and -8.9% (inactive) | 
COC(=O)Cn1nc(-c2ccccc2)c2cc(Cl)ccc21 | -3.67% (inactive) | 
O=C(Cn1c2ccccc2c2nc3n(c(=O)c21)CCS3)N1CCOCC1 | -8.2% (inactive) | 
Cc1cccc(N2CCN(C(=O)c3ccc(Cl)cc3)CC2)n1 |  | AC50 [2]: 120 nM
CCN(CC)C(=O)Cn1c2ccc(F)cc2c2nc3n(c(=O)c21)CCS3 | -39.8% (inactive) | 
O=c1c2[nH]c3ccccc3c2nc2n1CCS2 | -31.6% (inactive) | 
COC(=O)CCCn1nc(-c2ccccc2)c2ccccc21 | -45% (inactive) | 
O=C(c1ccc(Cl)cc1)N1CCN(c2cccc(C(F)(F)F)n2)CC1 |  | AC50 [2]: 17600 nM
O=C(Cn1nc(-c2ccccc2)c2ccccc21)Oc1ccccc1 | 26.7% (inactive) | 
COC(=O)Cn1nc(-c2ccc(C)cc2)c2ccccc21 | -25% (inactive) | 
COC(=O)Cn1nc(-c2ccccc2OC)c2ccccc21 |  | AC50 [2]: 1040 nM
Cc1ccnc(N2CCN(C(=O)c3ccc(Cl)cc3)CC2)c1 | -20% (inactive) | 
O=C(Cn1c2ccc(F)cc2c2nc3n(c(=O)c21)CCS3)N1CCCCC1 | -20.6% (inactive) | 
O=C(c1ccc(Cl)cc1)N1CCN(c2ncccc2C(F)(F)F)CC1 | -31.9% (inactive) | 
COC(=O)Cn1nc(-c2ccccc2)c2ccc(C)cc21 | 16.9% (inactive) | 
Cc1nn(S(C)(=O)=O)c2ccccc12 | -19.3% (inactive) | 
COc1ccc(C(=O)N2CCN(c3ccccn3)CC2)cc1 |  | AC50 [2]: 461 nM
COC(=O)Cn1nc(-c2ccccc2)c2cc(C)ccc21 | 3.35% (inactive) | 
N#Cc1cccc(N2CCN(C(=O)c3ccc(Cl)cc3)CC2)n1 | -27.5% (inactive) | 
COc1ccc(NC(=O)Cn2c3ccccc3c3nc4n(c(=O)c32)CCS4)cc1 |  | AC50 [2]: 14900 nM
O=C(c1ccc(F)cc1)N1CCN(c2ccccn2)CC1 | -8.14% (inactive) | 

Structure (SMILES) | activity change, negative = toxicity ([1]; at 26 µM (top of the series)) | also measured
CCCCC(=O)N1CCN(c2ccccn2)CC1 | 5.32% (inactive) | 
COC(=O)Cn1nc(C)c2ccccc21 | -17.5% (inactive) | 
CCCNC(=O)Cn1nc(-c2ccccc2)c2ccccc21 | 20.3% (inactive) | 
O=C(Cn1c2ccc(F)cc2c2nc3n(c(=O)c21)CCS3)N1CCCCCC1 | 21.2% (inactive) | 
COC(=O)Cn1nc(-c2ccccc2C)c2ccccc21 | 24.8% (inactive) | 
O=c1c2[nH]c3ccc(F)cc3c2nc2n1CCS2 | 9.27% (inactive) | 
COC(=O)Cn1nc(-c2ccccc2)c2ccccc21 | -33.7% (inactive) | 
COC(=O)Cn1c2ccccc2c2nc3n(c(=O)c21)CCS3 |  | AC50 [2]: 2660 nM
COC(=O)Cn1nc(-c2ccc(F)cc2)c2ccccc21 | -40.8% (inactive) | 
COCCn1nc(-c2ccccc2)c2ccccc21 | -7.82% (inactive) | 
COC(=O)Cn1nc(-c2ccc(Cl)cc2)c2ccccc21 | -6.09% (inactive) | 
O=C1OCCC1n1nc(-c2ccccc2)c2ccccc21 (configuration not stated) | 4.08% (inactive) | 
COC(=O)C(C)(C)n1nc(-c2ccccc2)c2ccccc21 | -1.11% (inactive) | 
COC(=O)Cn1ncc2ccccc21 |  | AC50 [2]: < 100 nM
O=C(c1ccc(Cl)cc1)N1CCN(c2ccc(C(F)(F)F)cn2)CC1 | 0.409% (inactive) | 
COCCC(=O)N1CCN(c2ccccn2)CC1 | 2.45% (inactive) | 
CC(C)C(=O)N1CCN(c2ccccn2)CC1 | 10% (inactive) | 
O=C(Cn1nc(-c2ccccc2)c2ccccc21)NCc1ccc(Cl)cc1 |  | AC50 [2]: 25900 nM
O=C(Cn1c2ccccc2c2nc3n(c(=O)c21)CCS3)N1CCCC1 | -33.6% (inactive) and 2.45% (inactive) | AC50 [2]: < 100 nM
O=C(C1CCCCC1)N1CCN(c2ccccn2)CC1 | -25.3% (inactive) | 
COC(=O)Cn1nc(-c2ccccc2)c2ccc(OC)cc21 |  | AC50 [2]: < 100 nM
O=C(O)Cn1nc(-c2ccccc2)c2ccccc21 | -23% (inactive) | 
O=C(Cn1nc(C(=O)N2CCCCC2)c2ccccc21)N1CCOCC1 | -3.68% (inactive) | 
